Experimental data from patent publication US8138168B1 (Takeda Pharmaceutical Company Limited, priority 2007, dated 2012).
Where two headings read alike, the source gives them in different places.

Molecular target: T1, Recombinant human renin (Homo sapiens, UniProt P00797)
T1 construct: isolate the active form (residues 67-406); made in house; host or cells: FreeStyle 293-F cells (transient expression of pcDNA3.1(+)/hREN)
T1 sequence (P00797 67-406): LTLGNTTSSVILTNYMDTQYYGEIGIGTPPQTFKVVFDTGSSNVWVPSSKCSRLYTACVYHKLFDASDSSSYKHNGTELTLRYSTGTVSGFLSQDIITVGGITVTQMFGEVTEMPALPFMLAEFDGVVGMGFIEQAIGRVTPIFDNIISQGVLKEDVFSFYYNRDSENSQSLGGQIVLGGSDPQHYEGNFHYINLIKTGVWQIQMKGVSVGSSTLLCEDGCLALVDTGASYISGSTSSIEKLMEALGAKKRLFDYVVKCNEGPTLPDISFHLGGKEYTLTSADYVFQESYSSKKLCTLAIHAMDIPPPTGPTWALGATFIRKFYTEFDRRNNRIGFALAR
Experiment: In vitro enzymatic activity assay of renin inhibitors (fluorogenic peptide substrate)
Assay type: biochemical
Method in brief: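 Recombinant human renin (3 nM final) pre-incubated 10 min at 37 °C with compounds in pH 7.4 Hepes/EDTA/DTT/0.1 mg/mL BSA/Brij35 buffer (optionally plus 2% BSA), 5% DMSO final; fluorogenic QXL520/HiLyteFluo488 peptide substrate added.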

[1] = read-out: IC50 of Exemplified Compounds Against Renin

IC50 [1] [nM]	Structure (SMILES)	IC50 [nM]
100 to 1000	CC(=O)NCCn1c([C@@H]2CCCN(C(=O)C[C@H](N)Cc3ccc(-c4ccc(O)nc4)cc3)C2)nc2c(Cl)cccc21 [Compound 478, N-(2-(2-((R)-1-((R)-3-amino-4-(4-(6-hydroxypyridin-3-yl)phenyl)butanoyl)piperidin-3-yl)-4-chloro-1H-benzo[d]imidazol-1-yl)ethyl)acetamide]	
< 100	COCCCn1c([C@@H]2CCCN(C(=O)C[C@H](N)Cc3ccc(-n4c(=O)n(CCOC)c5ccccc54)cc3)C2)nc2ccccc21 [Compound 214, 1-(4-((R)-2-amino-4-((R)-3-(1-(3-methoxypropyl)-1H-benzo[d]imidazol-2-yl)piperidin-1-yl)-4-oxobutyl)phenyl)-3-(2-methoxyethyl)-1H-benzo[d]imidazol-2(3H)-one]	
100 to 1000	COCCCn1c([C@@H]2CCCN(C(=O)[C@@H]3CN(C(=O)c4cccc(Cl)c4)C[C@H]3N)C2)nc2ccccc21 [Compound 375, ((3R,4S)-4-amino-1-(3-chlorobenzoyl)pyrrolidin-3-yl)((R)-3-(1-(3-methoxypropyl)-1H-benzo[d]imidazol-2-yl)piperidin-1-yl)methanone]	
100 to 1000	COCCCn1c([C@@H]2CCCN(C(=O)C[C@H](N)CNC(=O)Nc3ccccc3OC(F)(F)F)C2)nc2ccccc21 [Compound 265, 1-((S)-2-amino-4-((R)-3-(1-(3-methoxypropyl)-1H-benzo[d]imidazol-2-yl)piperidin-1-yl)-4-oxobutyl)-3-(2-(trifluoromethoxy)phenyl)urea]	
100 to 1000	COCCCn1c([C@@H]2CCCN(C(=O)C[C@H](N)Cc3ccccc3)C2)nc2ccccc21 [Compound 87, (R)-3-amino-1((R)-3-(1-(3-methoxypropyl)-1H-benzo[d]imidazol-2-yl)piperidin-yl)-4-phenylbutan-1-one]	
< 100	COCCCn1c([C@@H]2CCCN(C(=O)C[C@H](N)Cc3ccc(-c4ccncc4Cl)cc3)C2)nc2ccccc21 [Compound 131, (R)-3-amino-4-(4-(3-chloropyridin-4-yl)phenyl)-1-((R)-3-(1-(3-methoxypropyl)-1H-benzo[d]imidazol-2-yl)piperidin-1-yl)butan-1-one]	
> 1000	COCCCn1c([C@@H]2CCCN(C(=O)[C@@H]3CN(C(=O)c4ccccc4)C[C@H]3N)C2)nc2ccccc21 [Compound 385, ((3R,4S)-4-amino-1-benzoylpyrrolidin-3-yl)((R)-3-(1-(3-methoxypropyl)-1H-benzo[d]imidazol-2-yl)piperidin-1-yl)methanone]	
> 1000	COCCCn1c([C@@H]2CCCN(C(=O)C[C@H](N)Cc3ccncc3)C2)nc2ccccc21 [Compound 78, (R)-3-amino-1-((R)-3-(1-(3-methoxypropyl)-1H-benzo[d]imidazol-2-yl)piperidin-1-yl)-4-(pyridin-4-yl)butan-1-one]	
100 to 1000	COCCCn1c([C@@H]2CCCN(C(=O)C[C@H](N)CNC(=O)c3ccc(-c4cccc(Cl)c4)o3)C2)nc2ccccc21 [Compound 296, N-((S)-2-amino-4-((R)-3-(1-(3-methoxypropyl)-1H-benzo[d]imidazol-2-yl)piperidin-1-yl)-4-oxobutyl)-5-(3-chlorophenyl)furan-2-carboxamide]	
> 1000	COCCCn1c([C@@H]2CCCN(C(=O)[C@@H]3CN(C(=O)N4CCOCC4)C[C@H]3N)C2)nc2ccccc21 [Compound 423, ((3R,4S)-4-amino-1-(morpholine-4-carbonyl)pyrrolidin-3-yl)((R)-3-(1-(3-methoxypropyl)-1H-benzo[d]imidazol-2-yl)piperidin-1-yl)methanone]	
< 100	COCCCn1c([C@@H]2CCCN(C(=O)C[C@H](N)Cc3ccc(-c4ccc5c(c4)OC(F)(F)O5)cc3)C2)nc2c(F)cccc21 [Compound 454, (R)-3-amino-4-(4-(2,2-difluorobenzo[d][1,3]dioxol-5-yl)phenyl)-1-((R)-3-(4-fluoro-1-(3-methoxypropyl)-1H-benzo[d]imidazol-2-yl)piperidin-1-yl)butan-1-one]	
> 1000	COCCCn1c([C@@H]2CCCN(C(=O)[C@@H]3CN(S(=O)(=O)c4cc(C)ccc4OC)C[C@H]3N)C2)nc2ccccc21 [Compound 410, ((3R,4S)-4-amino-1-(2-methoxy-5-methylphenylsulfonyl)pyrrolidin-3-yl)((R)-3-(1-(3-methoxypropyl)-1H-benzo[d]imidazol-2-yl)piperidin-1-yl)methanone]	
100 to 1000	COCCCn1c([C@@H]2CCCN(C(=O)C[C@H](N)CNC(=O)Nc3ccccc3C(C)(C)C)C2)nc2ccccc21 [Compound 302, 1-((S)-2-amino-4-((R)-3-(1-(3-methoxypropyl)-1H-benzo[d]imidazol-2-yl)piperidin-1-yl)-4-oxobutyl)-3-(2-tert-butylphenyl)urea]	
100 to 1000	CCCc1ccccc1NC(=O)NC[C@@H](N)CC(=O)N1CCC[C@@H](c2nc3ccccc3n2CCCOC)C1 [Compound 286, 1-((S)-2-amino-4-((R)-3-(1-(3-methoxypropyl)-1H-benzo[d]imidazol-2-yl)piperidin-1-yl)-4-oxobutyl)-3-(2-propylphenyl)urea]	
< 100	COCCCn1c([C@@H]2CCCN(C(=O)C[C@H](N)Cc3ccc(-c4ccccc4)cc3)C2)nc2c(C)ccnc21 [Compound 505, (R)-3-amino-4-(biphenyl-4-yl)-1-((R)-3-(3-(3-methoxypropyl)-7-methyl-3H-imidazo[4,5-b]pyridin-2-yl)piperidin-1-yl)butan-1-one]	
> 1000	O=C([C@@H]1CCCN1C1CCNCC1)N1CCCC(c2nc3ccccc3[nH]2)C1 (stereo partly drawn) [Compound 49, (3-(1H-benzo[d]imidazol-2-yl)piperidin-1-yl)((S)-1-(piperidin-4-yl)pyrrolidin-2-yl)methanone]	
100 to 1000	COCCCn1c([C@@H]2CCCN(C(=O)C[C@H](N)Cc3ccc(-c4ccc(O)nc4)cc3)C2)nc2c(C)ccnc21 [Compound 504, (R)-3-amino-4-(4-(6-hydroxypyridin-3-yl)phenyl)-1-((R)-3-(3-(3-methoxypropyl)-7-methyl-3H-imidazo[4,5-b]pyridin-2-yl)piperidin-1-yl)butan-1-one]	
	COCCCn1c([C@@H]2CCCN(C(=O)[C@@H]3CN(C(=O)Oc4ccccc4Cl)C[C@H]3N)C2)nc2ccccc21 [Compound 390, (3S,4R)-2-chlorophenyl 3-amino-4-((R)-3-(1-(3-methoxypropyl)-1H-benzo[d]imidazol-2-yl)piperidine-1-carbonyl)pyrrolidine-1-carboxylate]	> 1000
100 to 1000	COCCCn1c([C@@H]2CCCN(C(=O)C[C@H](N)CNC(=O)c3ccc(C(=O)OC)cc3)C2)nc2ccccc21 [Compound 314, methyl 4-((S)-2-amino-4-((R)-3-(1-(3-methoxypropyl)-1H-benzo[d]imidazol-2-yl)piperidin-1-yl)-4-oxobutylcarbamoyl)benzoate]	
< 100	COCCCn1c([C@@H]2CCCN(C(=O)C[C@H](N)Cc3ccc(-c4ccc5c(c4)SCC(=O)N5)cc3)C2)nc2c(C)cccc21 [Compound 496, 7-(4-((R)-2-amino-4-((R)-3-(1-(3-methoxypropyl)-4-methyl-1H-benzo[d]imidazol-2-yl)piperidin-1-yl)-4-oxobutyl)phenyl)-2H-benzo[b][1,4]thiazin-3(4H)-one]	
